The source of these data is patent US20250120967A1, “TYROSINE KINASES INHIBITORS AND USES THEREOF” (GREAT NOVEL THERAPEUTICS BIOTECH & MEDICALS CORPORATION, priority 2023, published 2025).

Test in all cases: Tyrosine kinase inhibition assay
Common to all, as to type: biochemical

The target of assay [1] is FLT1 (VEGFR1) (Homo sapiens, UniProt P17948). Particulars: single concentration 1.0 μM, read-out: percent inhibition. On the procedure:
(§1) Tyrosine kinase inhibition assays were performed at ThermoFisher Life Technologies (Madison, WI, USA) using standard protocols (SelectScreen Biochemical Profiling Service, Thermo Fisher Scientific). ATP concentrations used were at the apparent Km. Test compounds were screened in 1% dimethylsulffoxide (DMSO) (final concentration) in the well. For 10-point titrations, 3-fold serial dilutions were conducted from the starting concentration of […]. All Peptide/Kinase Mixtures were diluted to a 2× working concentration in the appropriate Kinase Buffer. All ATP Solutions were diluted to a 4× working concentration in Kinase Buffer (50 mM HEPES pH 7.5, 0.01% BRIJ-35, 10 mM MgCl2, 1 mM EGTA). The apparent ATP Km was previously determined using a Z′-LYTE assay. The Development Reagent was diluted in Development Buffer.
(§2) The inhibition activities of compounds were determined in biochemical assays using single concentration (1.0 μM) measurements. The results were provided as percent inhibition values. […] 99 different tyrosine kinases were used.

Assay [2] addresses EGFR (ErbB1) (Homo sapiens, UniProt P00533). The conditions noted are these: single concentration 1.0 μM, read-out: percent inhibition. On the procedure: as §1, §2
The target in assay [3] is PTK2 (FAK) (Homo sapiens, UniProt Q05397). Particulars: single concentration 1.0 μM, read-out: percent inhibition. On the procedure:
as §1, §2

For assay [4], the target named is KDR (VEGFR2) (Homo sapiens, UniProt P35968). Particulars: for inhibition at 1 µM: single concentration 1.0 μM, read-out: percent inhibition; for IC50: read-out: IC50 of compound.
Chain of KDR (VEGFR2) (P35968 20-1356): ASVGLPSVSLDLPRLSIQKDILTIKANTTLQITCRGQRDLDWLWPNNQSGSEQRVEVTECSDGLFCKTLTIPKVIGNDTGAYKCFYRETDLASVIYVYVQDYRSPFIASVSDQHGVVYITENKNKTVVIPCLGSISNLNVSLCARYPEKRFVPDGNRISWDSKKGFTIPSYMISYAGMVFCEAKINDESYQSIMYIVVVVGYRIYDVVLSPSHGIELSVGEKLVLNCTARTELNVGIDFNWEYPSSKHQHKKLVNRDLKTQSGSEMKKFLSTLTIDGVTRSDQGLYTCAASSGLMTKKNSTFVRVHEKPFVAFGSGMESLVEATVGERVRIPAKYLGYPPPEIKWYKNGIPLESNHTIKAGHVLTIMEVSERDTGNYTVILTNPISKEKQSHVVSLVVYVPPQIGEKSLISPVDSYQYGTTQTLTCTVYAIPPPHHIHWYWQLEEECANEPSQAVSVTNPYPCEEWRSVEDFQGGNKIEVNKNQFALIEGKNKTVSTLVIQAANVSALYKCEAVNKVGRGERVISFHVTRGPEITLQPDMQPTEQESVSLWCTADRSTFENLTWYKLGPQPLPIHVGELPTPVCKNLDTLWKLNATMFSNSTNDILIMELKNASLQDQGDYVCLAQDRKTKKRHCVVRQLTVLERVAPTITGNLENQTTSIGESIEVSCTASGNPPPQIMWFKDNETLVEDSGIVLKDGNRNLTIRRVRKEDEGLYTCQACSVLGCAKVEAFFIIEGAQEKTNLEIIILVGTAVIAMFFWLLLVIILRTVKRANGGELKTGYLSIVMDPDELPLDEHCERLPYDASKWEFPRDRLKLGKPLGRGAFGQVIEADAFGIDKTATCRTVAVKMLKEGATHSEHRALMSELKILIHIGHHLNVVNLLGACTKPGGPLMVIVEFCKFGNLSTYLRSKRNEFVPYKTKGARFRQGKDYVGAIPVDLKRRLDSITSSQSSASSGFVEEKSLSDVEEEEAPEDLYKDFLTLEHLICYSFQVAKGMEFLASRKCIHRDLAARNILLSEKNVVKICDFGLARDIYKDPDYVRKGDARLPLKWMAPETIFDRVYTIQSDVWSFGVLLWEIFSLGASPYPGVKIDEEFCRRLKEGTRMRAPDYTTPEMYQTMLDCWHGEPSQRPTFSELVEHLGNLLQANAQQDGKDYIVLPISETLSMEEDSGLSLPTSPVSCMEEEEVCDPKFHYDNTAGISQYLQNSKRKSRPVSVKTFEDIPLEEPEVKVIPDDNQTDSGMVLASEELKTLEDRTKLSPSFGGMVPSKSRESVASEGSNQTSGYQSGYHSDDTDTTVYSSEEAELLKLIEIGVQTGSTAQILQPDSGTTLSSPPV
Assay [5] has as its target T1, AXL (Homo sapiens, UniProt P30530).
T1 sequence (P30530 26-894): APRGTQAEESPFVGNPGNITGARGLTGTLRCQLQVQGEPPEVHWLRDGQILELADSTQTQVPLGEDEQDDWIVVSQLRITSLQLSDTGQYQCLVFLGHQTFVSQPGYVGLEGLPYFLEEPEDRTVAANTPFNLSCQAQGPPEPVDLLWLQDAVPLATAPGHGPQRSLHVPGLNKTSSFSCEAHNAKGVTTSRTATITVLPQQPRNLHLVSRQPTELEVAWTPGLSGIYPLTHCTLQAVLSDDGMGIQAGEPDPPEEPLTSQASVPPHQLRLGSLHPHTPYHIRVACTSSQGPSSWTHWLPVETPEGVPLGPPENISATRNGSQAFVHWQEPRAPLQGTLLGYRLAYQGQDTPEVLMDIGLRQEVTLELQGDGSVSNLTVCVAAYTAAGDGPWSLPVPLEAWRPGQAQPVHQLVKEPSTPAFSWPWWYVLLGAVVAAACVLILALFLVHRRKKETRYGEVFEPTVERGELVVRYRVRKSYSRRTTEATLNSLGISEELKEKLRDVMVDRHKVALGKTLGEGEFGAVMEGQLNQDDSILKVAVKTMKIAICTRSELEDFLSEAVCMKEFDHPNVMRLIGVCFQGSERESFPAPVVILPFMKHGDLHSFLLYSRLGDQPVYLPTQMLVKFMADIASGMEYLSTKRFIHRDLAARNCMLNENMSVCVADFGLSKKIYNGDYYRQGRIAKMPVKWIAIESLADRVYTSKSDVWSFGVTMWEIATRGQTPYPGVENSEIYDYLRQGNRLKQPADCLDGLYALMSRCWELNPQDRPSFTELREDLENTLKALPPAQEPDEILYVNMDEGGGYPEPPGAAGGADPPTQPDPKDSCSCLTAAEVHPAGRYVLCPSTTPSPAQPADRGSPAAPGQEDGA
The conditions noted are these: for inhibition at 1 µM: single concentration 1.0 μM, read-out: percent inhibition; for IC50: read-out: IC50 of compound.

Assay [6] deals with T2, MERTK (cMER) (Homo sapiens, UniProt Q12866).
T2 sequence (Q12866 21-999): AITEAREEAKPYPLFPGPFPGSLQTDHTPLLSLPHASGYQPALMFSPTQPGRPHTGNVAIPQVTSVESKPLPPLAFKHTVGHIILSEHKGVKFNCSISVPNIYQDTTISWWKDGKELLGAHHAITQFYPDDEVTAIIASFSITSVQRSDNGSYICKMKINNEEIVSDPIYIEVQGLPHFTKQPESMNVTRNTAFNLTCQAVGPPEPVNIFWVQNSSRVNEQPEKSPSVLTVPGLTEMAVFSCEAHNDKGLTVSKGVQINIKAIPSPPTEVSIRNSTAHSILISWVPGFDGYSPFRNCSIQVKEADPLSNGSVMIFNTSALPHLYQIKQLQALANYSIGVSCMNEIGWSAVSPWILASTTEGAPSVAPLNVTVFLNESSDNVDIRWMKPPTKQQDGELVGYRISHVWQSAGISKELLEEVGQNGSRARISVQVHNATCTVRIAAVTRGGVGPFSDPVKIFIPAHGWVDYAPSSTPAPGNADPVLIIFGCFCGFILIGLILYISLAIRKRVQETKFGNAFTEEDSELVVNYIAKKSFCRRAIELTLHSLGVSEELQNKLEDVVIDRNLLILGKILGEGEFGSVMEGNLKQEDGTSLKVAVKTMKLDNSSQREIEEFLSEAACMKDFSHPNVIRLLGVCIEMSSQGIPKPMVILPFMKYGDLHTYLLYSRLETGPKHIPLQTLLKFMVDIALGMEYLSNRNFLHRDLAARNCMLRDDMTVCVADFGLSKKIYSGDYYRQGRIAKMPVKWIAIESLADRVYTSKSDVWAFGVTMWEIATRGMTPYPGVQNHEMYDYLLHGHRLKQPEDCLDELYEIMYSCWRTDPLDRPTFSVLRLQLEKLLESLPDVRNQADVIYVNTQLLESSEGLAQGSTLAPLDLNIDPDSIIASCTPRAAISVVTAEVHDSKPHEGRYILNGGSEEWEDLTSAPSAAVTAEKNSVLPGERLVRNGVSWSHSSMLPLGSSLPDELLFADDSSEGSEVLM
Particulars: for inhibition at 1 µM: single concentration 1.0 μM, read-out: percent inhibition; for IC50: read-out: IC50 of compound.

Chain of FLT1 (VEGFR1) (P17948 27-1338): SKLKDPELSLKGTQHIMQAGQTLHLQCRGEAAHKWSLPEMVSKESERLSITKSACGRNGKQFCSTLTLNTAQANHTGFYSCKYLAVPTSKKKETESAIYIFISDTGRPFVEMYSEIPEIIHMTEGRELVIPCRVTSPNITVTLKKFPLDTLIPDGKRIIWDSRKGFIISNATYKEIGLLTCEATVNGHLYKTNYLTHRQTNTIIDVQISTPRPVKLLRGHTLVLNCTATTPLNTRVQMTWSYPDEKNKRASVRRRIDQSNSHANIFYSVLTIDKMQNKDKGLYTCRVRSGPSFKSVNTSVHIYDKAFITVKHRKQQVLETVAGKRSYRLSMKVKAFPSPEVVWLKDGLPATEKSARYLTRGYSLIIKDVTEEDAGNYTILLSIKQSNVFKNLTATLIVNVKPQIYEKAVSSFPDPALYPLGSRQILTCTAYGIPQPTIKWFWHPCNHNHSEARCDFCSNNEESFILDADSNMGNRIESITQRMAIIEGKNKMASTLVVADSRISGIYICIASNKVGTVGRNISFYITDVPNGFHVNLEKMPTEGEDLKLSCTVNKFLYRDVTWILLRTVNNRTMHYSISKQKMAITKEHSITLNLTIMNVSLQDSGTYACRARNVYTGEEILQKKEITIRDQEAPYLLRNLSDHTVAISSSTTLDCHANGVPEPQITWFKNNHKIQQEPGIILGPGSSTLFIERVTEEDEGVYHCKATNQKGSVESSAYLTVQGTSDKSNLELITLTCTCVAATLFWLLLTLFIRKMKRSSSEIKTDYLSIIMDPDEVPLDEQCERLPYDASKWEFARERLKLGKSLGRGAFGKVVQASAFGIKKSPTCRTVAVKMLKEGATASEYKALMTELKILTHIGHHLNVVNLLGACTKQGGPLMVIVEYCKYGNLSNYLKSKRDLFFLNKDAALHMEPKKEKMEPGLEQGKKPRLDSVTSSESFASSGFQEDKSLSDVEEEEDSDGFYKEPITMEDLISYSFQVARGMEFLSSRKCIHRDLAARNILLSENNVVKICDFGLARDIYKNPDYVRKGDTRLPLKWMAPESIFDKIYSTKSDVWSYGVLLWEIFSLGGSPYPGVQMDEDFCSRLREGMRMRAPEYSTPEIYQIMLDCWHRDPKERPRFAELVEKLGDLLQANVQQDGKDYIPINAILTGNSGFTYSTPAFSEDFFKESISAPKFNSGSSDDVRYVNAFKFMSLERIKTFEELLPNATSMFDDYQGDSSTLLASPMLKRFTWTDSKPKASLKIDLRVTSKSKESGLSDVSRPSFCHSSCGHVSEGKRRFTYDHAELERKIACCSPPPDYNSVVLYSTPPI
Chain of EGFR (ErbB1) (P00533 25-1210): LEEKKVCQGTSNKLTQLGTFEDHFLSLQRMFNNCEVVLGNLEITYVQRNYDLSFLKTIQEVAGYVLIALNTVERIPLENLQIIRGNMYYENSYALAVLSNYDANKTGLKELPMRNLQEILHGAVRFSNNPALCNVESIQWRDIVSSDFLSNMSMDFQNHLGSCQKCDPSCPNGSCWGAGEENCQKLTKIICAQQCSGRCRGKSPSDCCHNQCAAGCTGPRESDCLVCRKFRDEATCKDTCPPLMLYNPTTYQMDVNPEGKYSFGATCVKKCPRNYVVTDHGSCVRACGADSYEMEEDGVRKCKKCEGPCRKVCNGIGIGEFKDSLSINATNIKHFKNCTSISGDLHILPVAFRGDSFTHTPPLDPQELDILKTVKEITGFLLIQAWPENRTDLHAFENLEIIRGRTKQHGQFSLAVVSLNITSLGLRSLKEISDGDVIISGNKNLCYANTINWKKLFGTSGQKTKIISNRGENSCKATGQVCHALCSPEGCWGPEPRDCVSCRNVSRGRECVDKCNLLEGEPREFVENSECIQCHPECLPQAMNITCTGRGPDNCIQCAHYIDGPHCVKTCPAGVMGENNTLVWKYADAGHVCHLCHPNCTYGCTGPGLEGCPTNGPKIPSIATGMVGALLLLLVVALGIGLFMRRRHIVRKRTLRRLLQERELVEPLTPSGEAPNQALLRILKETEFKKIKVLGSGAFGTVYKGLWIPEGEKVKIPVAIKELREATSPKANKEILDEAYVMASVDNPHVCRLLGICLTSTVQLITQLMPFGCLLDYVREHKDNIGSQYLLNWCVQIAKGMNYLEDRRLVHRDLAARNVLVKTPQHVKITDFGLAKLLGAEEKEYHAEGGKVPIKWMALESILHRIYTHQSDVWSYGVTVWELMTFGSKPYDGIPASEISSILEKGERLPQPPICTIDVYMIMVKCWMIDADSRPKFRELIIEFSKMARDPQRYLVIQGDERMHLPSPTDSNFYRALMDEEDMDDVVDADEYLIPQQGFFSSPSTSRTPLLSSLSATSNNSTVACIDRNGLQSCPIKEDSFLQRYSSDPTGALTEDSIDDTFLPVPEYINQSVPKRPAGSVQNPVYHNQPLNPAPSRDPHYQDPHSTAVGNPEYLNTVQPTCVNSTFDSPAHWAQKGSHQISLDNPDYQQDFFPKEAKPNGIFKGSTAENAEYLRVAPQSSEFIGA
Chain of PTK2 (FAK) (Q05397 whole entry): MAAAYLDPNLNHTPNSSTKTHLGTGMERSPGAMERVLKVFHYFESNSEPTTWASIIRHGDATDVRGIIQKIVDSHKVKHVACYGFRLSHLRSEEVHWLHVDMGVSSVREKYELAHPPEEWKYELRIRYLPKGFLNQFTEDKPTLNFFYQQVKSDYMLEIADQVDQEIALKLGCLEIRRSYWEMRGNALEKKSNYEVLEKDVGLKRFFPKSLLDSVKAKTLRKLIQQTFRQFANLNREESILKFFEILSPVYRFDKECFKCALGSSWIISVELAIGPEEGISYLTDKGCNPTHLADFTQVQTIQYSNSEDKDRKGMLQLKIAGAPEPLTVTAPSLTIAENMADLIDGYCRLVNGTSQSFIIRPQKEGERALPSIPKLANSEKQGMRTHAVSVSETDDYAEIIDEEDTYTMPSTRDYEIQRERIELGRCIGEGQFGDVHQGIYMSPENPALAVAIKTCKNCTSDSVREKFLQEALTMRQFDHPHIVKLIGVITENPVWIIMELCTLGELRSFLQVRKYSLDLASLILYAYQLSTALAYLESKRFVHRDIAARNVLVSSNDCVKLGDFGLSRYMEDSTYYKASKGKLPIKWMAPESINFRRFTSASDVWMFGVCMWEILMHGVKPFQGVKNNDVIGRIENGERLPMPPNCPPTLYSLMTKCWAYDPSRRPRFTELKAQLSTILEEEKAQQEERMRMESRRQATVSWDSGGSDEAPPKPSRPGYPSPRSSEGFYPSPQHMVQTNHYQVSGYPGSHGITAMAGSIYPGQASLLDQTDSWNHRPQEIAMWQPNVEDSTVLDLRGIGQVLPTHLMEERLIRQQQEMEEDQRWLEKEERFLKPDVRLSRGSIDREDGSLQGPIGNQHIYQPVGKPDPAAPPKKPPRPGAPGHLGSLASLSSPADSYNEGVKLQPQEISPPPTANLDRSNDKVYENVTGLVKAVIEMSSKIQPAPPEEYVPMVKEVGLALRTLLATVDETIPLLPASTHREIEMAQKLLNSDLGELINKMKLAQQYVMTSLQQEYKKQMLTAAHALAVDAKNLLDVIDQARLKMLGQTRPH

Take `COc1cc2nccc(Oc3ccc(NC(=O)C4(C(=O)Nc5ccc(F)cc5)CC4)cc3)c2cc1OC` [Cabozantinib, reference compound]: the inhibition – broadly, the change of the read-out against control, counted positive when it falls – at 1 µM came to 67% in assay [1] and 32% in assay [2].

As to `COc1cc2nccc(Oc3ccc(NC(=O)C4(NC(=O)c5ccc(F)cc5)CC4)cc3F)c2cc1OC` [Cbo-02, N-(1-((4-((6,7-diMethoxyquinolin-4-yl)oxy)-3-fluorophenyl)carbamoyl)cyclopropyl)-4-fluorobenzamide], the inhibition at 1 µM worked out at 20% in assay [3]; 30% in assay [1]; 44% in assay [2]; 96% in assay [4]; 91% in assay [5]; 100% in assay [6].

Regarding `COc1cc2nccc(Oc3ccc(NC(=O)C4(NC(=O)c5ccc(F)cc5)CC4)cc3F)c2cc1Oc1ccc(N)cc1F` [Cbo-10], the inhibition at 1 µM amounted to 33% in assay [3]; 61% in assay [1]; 88% in assay [2]; 98% in assay [4]; 98% in assay [5]; 95% in assay [6].

For `COc1cc2nccc(Oc3ccc(NC(=O)C4(NC(=O)c5ccc(F)cc5)CC4)cc3F)c2cc1Oc1c(F)cc(N)cc1F` [Cbo-14], the inhibition at 1 µM is 29% in assay [3]; 62% in assay [1]; 89% in assay [2]; 100% in assay [4]; 96% in assay [5]; 97% in assay [6].

Consider `COc1cc2nccc(Oc3ccc(NC(=O)C4(C(=O)Nc5ccc(F)cc5)CC4)cc3F)c2cc1Oc1ccc(N)cc1F` [Cbo-23], for which the inhibition at 1 µM in assay [3] was 66%; in assay [1] it was 76%; in assay [2], 58%; in assay [4], 98%; in assay [5], 106%; in assay [6], 98%. In addition, the results for the IC50 in assay [4], in assay [5] and in assay [6] were 29.2 nM, 5.42 nM and 3.72 nM, respectively.

Take `CNC(=O)c1cc2c(Oc3ccc(NC(=O)C4(C(=O)Nc5ccc(F)cc5)CC4)cc3)ccnc2cc1OC` [Zanzalintinib, reference compound]: the IC50 (in general, the concentration that inhibits the measured activity by half) in assay [4] was determined as 2.43 nM; in assay [5], 1.41 nM; in assay [6], 6.96 nM.
